Literature values as cited in patent publication US9339034B2, “Use of thaxtomin for selective control of rice and aquatic based weeds” (MARRONE BIO INNOVATIONS, INC., priority 2009, dated 2016).

System: weeds
Settings: in vivo; cited from earlier work

C=C(CO)C(C)(O)CC(=O)O (stereo not shown) [mevalocidin]
time to kill weeds: 3-4 weeks
